Test results published in patent US20070042938A1, “Use of dpiv and apn inhibitors for the treatment of dermatalogical diseases involving the hyperproliferation and modified differentiation conditions of fibroblasts” (priority 2003, published 2007).

Tested on: human fibroblasts
Experiment: DNA synthesis of human fibroblasts (3[H]-thymidine incorporation)
Format: cell-based
Settings: fibroblasts of healthy donors, 48 h incubation with inhibitor, then 3[H]-methyl thymidine for further 6 h; dose-dependent (FIG. 3)
Description: Fibroblasts of healthy donors were incubated for 48 h together with the above-mentioned inhibitors, and the DNA synthesis was determined subsequently by a measurement of the ^3[H]-thymidine incorporation, as described by Reihold et al. (Reinhold D et al.: Inhibitors of dipeptidyl peptidase IV induce secretion of transforming growth factor β1 in PWM-stimulated PBMNC and T cells, Immunology 1997, 91: 354-360).
For measuring the dose-dependent effect of inhibitors of DP IV (Lys[Z(NO2)] thiazolidide) and of aminopeptidase N (Actinonin) on the DNA synthesis of human fibroblasts, cells were incubated for 48 h with the indicated concentrations of the inhibitors. Subsequently, ^3[H]-Methyl thymidine was added to the culture medium, and the amount of ^3[H]-thymidine incorporated into the DNA was measured after further 6 h.

Structure (SMILES)	inhibition of the DNA synthesis of human fibroblasts
CCCCC[C@H](CC(=O)NO)C(=O)N[C@H](C(=O)N1CCC[C@H]1CO)C(C)C [Actinonin]	inhibited
N[C@@H](CCCCNC(=O)OCc1ccc([N+](=O)[O-])cc1)C(=O)N1CCSC1 [Lys[Z(NO2)] thiazolidide]	inhibited
